Test results from ChEMBL document CHEMBL2434896, “Carbonic anhydrase inhibitors. Synthesis of heterocyclic 4-substituted pyridine-3-sulfonamide derivatives and their inhibition of the human cytosolic isozymes I and II and transmembrane tumor-associated isozymes IX and XII” (Eur J Med Chem, 2013).
Activity calls are given as the source filed them. No cut-off for these calls is given here.

What was measured:
TK-10 = experiment: Growth inhibition of human TK10 cells at 10 uM after 48 hrs by sulforhodamine B assay; format: functional; conditions: TK-10, 48 h, read-out: GI
786-0 = experiment: Growth inhibition of human 786-0 cells at 10 uM after 48 hrs by sulforhodamine B assay; format: functional
SW-620 = experiment: Growth inhibition of human SW620 cells at 10 uM after 48 hrs by sulforhodamine B assay; format: functional
NCI-H460 = experiment: Growth inhibition of human NCI-H460 cells at 10 uM after 48 hrs by sulforhodamine B assay; format: functional
SK-MEL-2 = experiment: Growth inhibition of human SK-MEL-2 cells at 10 uM after 48 hrs by sulforhodamine B assay; format: functional
UACC-62 = experiment: Growth inhibition of human UACC62 cells at 10 uM after 48 hrs by sulforhodamine B assay; format: functional
Malme-3M = experiment: Growth inhibition of human MALME-3M cells at 10 uM after 48 hrs by sulforhodamine B assay; format: functional; conditions: read-out: GI
M14 = experiment: Growth inhibition of human M14 cells at 10 uM after 48 hrs by sulforhodamine B assay; format: functional
NCI-H322M = experiment: Growth inhibition of human NCI-H322M cells at 10 uM after 48 hrs by sulforhodamine B assay; format: functional; conditions: read-out: GI
COLO 205 = experiment: Growth inhibition of human COLO205 cells at 10 uM after 48 hrs by sulforhodamine B assay; format: functional; conditions: COLO 205, 48 h, read-out: GI
A498 = experiment: Growth inhibition of human A498 cells at 10 uM after 48 hrs by sulforhodamine B assay; format: functional
[1] = Growth inhibition of human EKVX cells at 10 uM after 48 hrs by sulforhodamine B assay; format: functional; conditions: read-out: GI
DU-145 = experiment: Growth inhibition of human DU145 cells at 10 uM after 48 hrs by sulforhodamine B assay; format: functional
HT-29 = experiment: Growth inhibition of human HT-29 cells at 10 uM after 48 hrs by sulforhodamine B assay; format: functional; conditions: HT-29, 48 h, read-out: GI
CAKI-1 = experiment: Growth inhibition of human CAKI-1 cells at 10 uM after 48 hrs by sulforhodamine B assay; format: functional; conditions: CAKI-1, 48 h, read-out: GI
MCF7 = experiment: Growth inhibition of human MCF7 cells at 10 uM after 48 hrs by sulforhodamine B assay; format: functional
SF-539 = experiment: Growth inhibition of human SF539 cells at 10 uM after 48 hrs by sulforhodamine B assay; format: functional; conditions: SF-539, 48 h, read-out: GI
SN12C = experiment: Growth inhibition of human SN12C cells at 10 uM after 48 hrs by sulforhodamine B assay; format: functional
HCT-15 = experiment: Growth inhibition of human HCT15 cells at 10 uM after 48 hrs by sulforhodamine B assay; format: functional
SK-OV-3 = experiment: Growth inhibition of human SKOV3 cells at 10 uM after 48 hrs by sulforhodamine B assay; format: functional; conditions: SK-OV-3, 48 h, read-out: GI
T47D = experiment: Growth inhibition of human T47D cells at 10 uM after 48 hrs by sulforhodamine B assay; format: functional; conditions: read-out: GI
OVCAR-4 = experiment: Growth inhibition of human OVCAR4 cells at 10 uM after 48 hrs by sulforhodamine B assay; format: functional
MDA-MB-435 = experiment: Growth inhibition of human MDA-MB-435 cells at 10 uM after 48 hrs by sulforhodamine B assay; format: functional
NCI-H522 = experiment: Growth inhibition of human NCI-H522 cells at 10 uM after 48 hrs by sulforhodamine B assay; format: functional
SR = experiment: Growth inhibition of human SR cells at 10 uM after 48 hrs by sulforhodamine B assay; format: functional
Hs-578T = experiment: Growth inhibition of human Hs 578T cells at 10 uM after 48 hrs by sulforhodamine B assay; format: functional
SF-268 = experiment: Growth inhibition of human SF268 cells at 10 uM after 48 hrs by sulforhodamine B assay; format: functional
K562 = experiment: Growth inhibition of human K562 cells at 10 uM after 48 hrs by sulforhodamine B assay; format: functional
OVCAR-3 = experiment: Growth inhibition of human OVCAR3 cells at 10 uM after 48 hrs by sulforhodamine B assay; format: functional
OVCAR-5 = experiment: Growth inhibition of human OVCAR5 cells at 10 uM after 48 hrs by sulforhodamine B assay; format: functional; conditions: OVCAR-5, 48 h, read-out: GI
UO-31 = experiment: Growth inhibition of human UO31 cells at 10 uM after 48 hrs by sulforhodamine B assay; format: functional; conditions: UO-31, 48 h, read-out: GI
HOP-62 = experiment: Growth inhibition of human HOP62 cells at 10 uM after 48 hrs by sulforhodamine B assay; format: functional
HCT-116 = experiment: Growth inhibition of human HCT116 cells at 10 uM after 48 hrs by sulforhodamine B assay; format: functional
NCI-H23 = experiment: Growth inhibition of human NCI-H23 cells at 10 uM after 48 hrs by sulforhodamine B assay; format: functional
HL-60(TB) = experiment: Growth inhibition of human HL-60(TB) cells at 10 uM after 48 hrs by sulforhodamine B assay; format: functional
ACHN = experiment: Growth inhibition of human ACHN cells at 10 uM after 48 hrs by sulforhodamine B assay; format: functional
U-251 = experiment: Growth inhibition of human U251 cells at 10 uM after 48 hrs by sulforhodamine B assay; format: functional; conditions: U-251, 48 h, read-out: GI
SK-MEL-28 = experiment: Growth inhibition of human SK-MEL-28 cells at 10 uM after 48 hrs by sulforhodamine B assay; format: functional, cell-based
CCRF-CEM = experiment: Growth inhibition of human CCRF-CEM cells at 10 uM after 48 hrs by sulforhodamine B assay; format: functional; conditions: read-out: GI
SF-295 = experiment: Growth inhibition of human SF295 cells at 10 uM after 48 hrs by sulforhodamine B assay; format: functional; conditions: SF-295, 48 h, read-out: GI
UACC-257 = experiment: Growth inhibition of human UACC257 cells at 10 uM after 48 hrs by sulforhodamine B assay; format: functional
RPMI-8226 = experiment: Growth inhibition of human RPMI8226 cells at 10 uM after 48 hrs by sulforhodamine B assay; format: functional; conditions: RPMI-8226, 48 h, read-out: GI
A549 = experiment: Growth inhibition of human A549/ATCC cells at 10 uM after 48 hrs by sulforhodamine B assay; format: functional; conditions: A549, 48 h, read-out: GI
MOLT-4 = experiment: Growth inhibition of human MOLT4 cells at 10 uM after 48 hrs by sulforhodamine B assay; format: functional; conditions: MOLT-4, 48 h, read-out: GI
HCC 2998 = experiment: Growth inhibition of human HCC2998 cells at 10 uM after 48 hrs by sulforhodamine B assay; format: functional
SK-MEL-5 = experiment: Growth inhibition of human SK-MEL-5 cells at 10 uM after 48 hrs by sulforhodamine B assay; format: functional; conditions: SK-MEL-5, 48 h, read-out: GI
SNB-19 = experiment: Growth inhibition of human SNB19 cells at 10 uM after 48 hrs by sulforhodamine B assay; format: functional
Carbonic anhydrase 9 = Carbonic anhydrase 9 (Homo sapiens, UniProt Q16790); experiment: Inhibition of human carbonic anhydrase 9 after 15 mins by stopped flow CO2 hydration assay
SNB-75 = experiment: Growth inhibition of human SNB75 cells at 10 uM after 48 hrs by sulforhodamine B assay; format: functional
KM12 = experiment: Growth inhibition of human KM12 cells at 10 uM after 48 hrs by sulforhodamine B assay; format: functional
NCI-H226 = experiment: Growth inhibition of human NCI-H226 cells at 10 uM after 48 hrs by sulforhodamine B assay; format: functional
MDA-MB-231 = experiment: Growth inhibition of human MDA-MB-231 cells at 10 uM after 48 hrs by sulforhodamine B assay; format: functional
OVCAR-8 = experiment: Growth inhibition of human OVCAR8 cells at 10 uM after 48 hrs by sulforhodamine B assay; format: functional
BT-549 = experiment: Growth inhibition of human BT549 cells at 10 uM after 48 hrs by sulforhodamine B assay; format: functional
LOX IMVI = experiment: Growth inhibition of human LOXIMVI cells at 10 uM after 48 hrs by sulforhodamine B assay; format: functional; conditions: read-out: GI
PC-3 = experiment: Growth inhibition of human PC3 cells at 10 uM after 48 hrs by sulforhodamine B assay; format: functional; conditions: PC-3, 48 h, read-out: GI
IGROV-1 = experiment: Growth inhibition of human IGROV1 cells at 10 uM after 48 hrs by sulforhodamine B assay; format: functional; conditions: IGROV-1, 48 h, read-out: GI
NCI/ADR-RES = experiment: Growth inhibition of human NCI-ADR-RES cells at 10 uM after 48 hrs by sulforhodamine B assay; format: functional

Structure (SMILES): CCCCc1c(C)nn(-c2ccncc2S(N)(=O)=O)c1C
- inhibition of growth at 10 µM (TK-10): 9%
- growth inhibition (GI) (786-0): inactive
- growth inhibition (GI) (SW-620): inactive
- growth inhibition (GI) (NCI-H460): inactive
- growth inhibition (GI) (SK-MEL-2): inactive
- growth inhibition (GI) (UACC-62): inactive
- inhibition of growth at 10 µM (Malme-3M): 13%
- growth inhibition (GI) (M14): inactive
- inhibition of growth at 10 µM (NCI-H322M): 7%
- inhibition of growth at 10 µM (COLO 205): 1%
- growth inhibition (GI) (A498): inactive
- inhibition of growth at 10 µM [1]: 6%
- growth inhibition (GI) (DU-145): inactive
- inhibition of growth at 10 µM (HT-29): 15%
- inhibition of growth at 10 µM (CAKI-1): 5%
- growth inhibition (GI) (MCF7): inactive
- inhibition of growth at 10 µM (SF-539): 3%
- growth inhibition (GI) (SN12C): inactive
- growth inhibition (GI) (HCT-15): inactive
- inhibition of growth at 10 µM (SK-OV-3): 2%
- inhibition of growth at 10 µM (T47D): 11%
- growth inhibition (GI) (OVCAR-4): inactive
- growth inhibition (GI) (MDA-MB-435): inactive
- growth inhibition (GI) (NCI-H522): inactive
- growth inhibition (GI) (SR): inactive
- growth inhibition (GI) (Hs-578T): inactive
- growth inhibition (GI) (SF-268): inactive
- growth inhibition (GI) (K562): inactive
- growth inhibition (GI) (OVCAR-3): inactive
- inhibition of growth at 10 µM (OVCAR-5): 8%
- inhibition of growth at 10 µM (UO-31): 23%
- growth inhibition (GI) (HOP-62): inactive
- growth inhibition (GI) (HCT-116): inactive
- growth inhibition (GI) (NCI-H23): inactive
- growth inhibition (GI) (HL-60(TB)): inactive
- growth inhibition (GI) (ACHN): inactive
- inhibition of growth at 10 µM (U-251): 8%
- growth inhibition (GI) (SK-MEL-28): inactive
- inhibition of growth at 10 µM (CCRF-CEM): 8%
- inhibition of growth at 10 µM (SF-295): 8%
- growth inhibition (GI) (UACC-257): inactive
- inhibition of growth at 10 µM (RPMI-8226): 27%
- inhibition of growth at 10 µM (A549): 17%
- inhibition of growth at 10 µM (MOLT-4): 17%
- growth inhibition (GI) (HCC 2998): inactive
- inhibition of growth at 10 µM (SK-MEL-5): 16%
- growth inhibition (GI) (SNB-19): inactive
- Ki (Carbonic anhydrase 9): 48.6 nM
- growth inhibition (GI) (SNB-75): inactive
- growth inhibition (GI) (KM12): inactive
- growth inhibition (GI) (NCI-H226): inactive
- growth inhibition (GI) (MDA-MB-231): inactive
- growth inhibition (GI) (OVCAR-8): inactive
- growth inhibition (GI) (BT-549): inactive
- inhibition of growth at 10 µM (LOX IMVI): 2%
- inhibition of growth at 10 µM (PC-3): 8%
- inhibition of growth at 10 µM (IGROV-1): 3%
- growth inhibition (GI) (NCI/ADR-RES): inactive
